In PubChem BioAssay AID588668 (The Scripps Research Institute Molecular Screening Center, 2011) one finds phospho-ERK1/2 inhibition (% vs DMSO), stronger effect = higher value data, which are given here for three molecules.

The target of the assay is Mitogen-activated protein kinase 1 (Homo sapiens) (UniProt P28482). Description: P-MAPK1 protein lowering, cellular counter-screen – SW620 cells, chemiluminescent western blot, powder samples, counter-screen for KLF5 inhibitor project, late-stage follow-up (AID 588668). Particulars: phospho-ERK1/2 western blot, 24 h, at 10 µM. (Counterscreens check selectivity or assay interference.)
Sequence of Mitogen-activated protein kinase 1 (Homo sapiens) (P28482 whole entry, looked up): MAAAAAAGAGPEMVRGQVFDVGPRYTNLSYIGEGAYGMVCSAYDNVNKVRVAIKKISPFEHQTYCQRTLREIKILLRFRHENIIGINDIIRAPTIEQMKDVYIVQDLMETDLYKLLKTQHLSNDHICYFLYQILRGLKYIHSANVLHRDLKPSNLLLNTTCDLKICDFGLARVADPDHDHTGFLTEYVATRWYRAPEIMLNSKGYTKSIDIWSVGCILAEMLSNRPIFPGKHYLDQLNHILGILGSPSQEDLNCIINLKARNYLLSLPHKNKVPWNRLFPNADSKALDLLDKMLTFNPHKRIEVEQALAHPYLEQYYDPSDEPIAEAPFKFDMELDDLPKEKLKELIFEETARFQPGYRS

In the case of `CN(C(=O)CNC(=O)/C=C/c1cccc(Cl)c1)C1CCS(=O)(=O)C1` (stereo not drawn), the phospho-ERK1/2 inhibition (% vs DMSO), stronger effect = higher value was 31.3%.

Regarding `CN(C(=O)CNC(=O)/C=C/c1cccc(Cl)c1)C1CCS(=O)(=O)CC1`, the phospho-ERK1/2 inhibition (% vs DMSO), stronger effect = higher value is 48.2%.

Take `CN(C(=O)COC(=O)/C=C/c1cccc([N+](=O)[O-])c1)C1CCS(=O)(=O)C1` (stereo not drawn): the phospho-ERK1/2 inhibition (% vs DMSO), stronger effect = higher value was 35.6%.
